Key:
DAO = molecular target: T1, DAO (Homo sapiens, UniProt P19801); test: Substrate turnover by H2O2 release, amplex red coupled fluorometric activity assay (Extended Data Fig. 3a); format: biochemical
T1 sequence (P19801 20-751): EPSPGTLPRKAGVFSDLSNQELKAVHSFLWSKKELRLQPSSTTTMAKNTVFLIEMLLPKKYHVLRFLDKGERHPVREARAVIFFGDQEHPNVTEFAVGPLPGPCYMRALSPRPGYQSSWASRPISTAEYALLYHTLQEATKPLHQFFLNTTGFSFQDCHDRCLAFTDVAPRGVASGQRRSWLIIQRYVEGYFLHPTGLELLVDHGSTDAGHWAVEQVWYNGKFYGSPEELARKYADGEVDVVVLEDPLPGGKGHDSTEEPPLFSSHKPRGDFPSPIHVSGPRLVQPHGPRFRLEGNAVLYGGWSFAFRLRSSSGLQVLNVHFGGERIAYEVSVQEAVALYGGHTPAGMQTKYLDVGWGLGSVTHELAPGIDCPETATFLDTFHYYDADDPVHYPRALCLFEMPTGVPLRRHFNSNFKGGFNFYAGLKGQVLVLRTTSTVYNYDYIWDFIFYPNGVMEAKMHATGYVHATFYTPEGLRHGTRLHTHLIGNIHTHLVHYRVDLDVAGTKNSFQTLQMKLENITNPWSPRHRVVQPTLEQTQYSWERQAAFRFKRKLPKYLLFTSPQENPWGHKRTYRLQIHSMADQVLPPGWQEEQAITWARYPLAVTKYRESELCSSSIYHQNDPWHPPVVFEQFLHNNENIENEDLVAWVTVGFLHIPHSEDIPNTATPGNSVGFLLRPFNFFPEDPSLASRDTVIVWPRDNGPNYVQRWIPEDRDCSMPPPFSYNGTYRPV
Description: Specifically, BAPN is oxidized by diamine oxidase (DAO) and semicarbazide-sensitive amine oxidase (SSAO)/vascular adhesion protein 1 (VAP-1) in the vasculature (Extended Data Fig. 3a), which releases hydrogen […] (H2O2) and aldehyde in humans leading to toxicity.
Data presented as mean values +/− SD. f. […] Data presented as mean values +/− SD. […] Data presented as mean values +/− SD. […] Data presented as mean values +/− SD. Ordinary one-way ANOVA for multiple comparison test performed. Source data

[1] = tested on: human pancreatic cancer CAF remodeled organotypic matrices; test: Matrix stiffness by unconfined compression testing of organotypic matrices; format: cell-based; settings: human pancreatic cancer CAFs, PXS-5505 during remodeling
Experimental: Unconfined compression of 3D organotypic collagen matrices treated with or without PXS-5505 was performed on a TA Instruments Dynamic Hybrid Rheometer (DHR-3, TA Instruments). Remodeled collagen matrices were placed between upper and lower parallel plate geometries. A constant linear compressive rate of 5 µm s^−1 was applied to the samples and axial force (N) and gap (mm) were collected every 0.01 s. Data were processed and a stress–strain curve for each replicate was obtained. Bulk elastic modulus (kPa) was obtained as the gradient of the linear region of the stress–strain curve corrected for cross-sectional area of sample and normalized to control. Data points represent biological replicates. […]
Extended Data Fig. 4 PXS-5505 inhibits collagen cross-linking by PDAC CAFs in vitro resulting in decreased cancer cell invasion. a. […] Chemical structures of lysyl oxidase family catalyzed hydroxyallysine or allysine residues and the subsequent divalent and trivalent bonds that are formed that can be quantified by mass spectrometry. c. […] Relative fold expression of LOXL family members compared to LOX were determined by 2^–∆∆Ct approach. f. […] Comparison of measured area of matrices between control, PXS-5120 and PXS-5505 treatment groups (n = 3) over time. i. […] Representative images of invasion of KPC cancer cells into a contracted organotypic matrix as determined by H&E staining. […]

## Cl.Cl.NC/C=C(\F)CS(=O)(=O)c1cccc2cccnc12.O [PXS-5505, (Z)-3-fluoro-4-(quinolin-8-ylsulfonyl)but-2-en-1-amine dihydrochloride monohydrate]
DAO
  processing as a substrate by DAO: not processed as a substrate
DAO; listed as value 30 (unit not given)
  Turnover by DAO as measured by H2O2 release, mean: 0.9677
DAO; listed as value 60 (unit not given)
  Turnover by DAO as measured by H2O2 release, mean: 0.9315
DAO; listed as value 300 (unit not given)
  Turnover by DAO as measured by H2O2 release, mean: 1.1475
[1]
  stiffness (bulk modulus) of remodeled organotypic matrices: decrease in stiffness (bulk modulus)

— article PMC10518255, “A first-in-class pan-lysyl oxidase inhibitor impairs stromal remodeling and enhances gemcitabine response and survival in pancreatic cancer” (Nature Cancer, 2023)
